Key:
[1] = target: Human immunodeficiency virus type 1 integrase (Human immunodeficiency virus 1, UniProt Q7ZJM1); experiment: Binding affinity to recombinant HIV-1 integrase catalytic core domain expressed in Escherichia coli assessed as inhibition of interaction with […] by HTRF assay
[2] = target: Human immunodeficiency virus type 1 integrase (Human immunodeficiency virus 1) (UniProt Q7ZJM1); experiment: Inhibition of His-tagged HIV-1 integrase-mediated 3' processing and strand transfer reactions using 5'-ACAGGCCTAGCACGCGTCG-Biotin-3' annealed with 5'-CGACGCGTGGTAGGCCTGT-Biotin3'/5'-Cy5-ATGTGGAAAATCTCTAGCAGT-3' annealed with 5'-Cy5-TGAGCTCGAGATTTTCCACAT-3' as donar/acceptor DNA substrate preincubated for 1 hr followed by DNA and LEDGF/p75 addition measured after 90 mins by HTRF assay
Sequence of Human immunodeficiency virus type 1 integrase (Human immunodeficiency virus 1) (Q7ZJM1 as listed by the source): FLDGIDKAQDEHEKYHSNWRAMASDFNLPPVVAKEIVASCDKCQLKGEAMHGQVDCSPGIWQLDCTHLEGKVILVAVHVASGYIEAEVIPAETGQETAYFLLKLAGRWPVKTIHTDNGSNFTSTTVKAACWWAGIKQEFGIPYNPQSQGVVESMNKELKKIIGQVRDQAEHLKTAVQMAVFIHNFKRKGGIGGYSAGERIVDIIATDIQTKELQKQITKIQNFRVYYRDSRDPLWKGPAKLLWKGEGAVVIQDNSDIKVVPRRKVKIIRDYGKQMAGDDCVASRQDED

Sequence of Human immunodeficiency virus type 1 integrase (Q7ZJM1 whole entry, the tested form may be a part): as the sequence (Q7ZJM1 as listed by the source) above

IC50 [1] [nM]	inhibition [2]	SMILES
60		Cc1nc2ccc(Br)cc2c(-c2ccc(Cl)cc2)c1[C@H](OC(C)(C)C)C(=O)O
18		Cc1nc2ccccc2c(-c2cc(F)c3c(c2C)CCCO3)c1[C@H](OC(C)(C)C)C(=O)O
	Dose-dependent effect	CCC[C@H](C(=O)O)c1c(C)nc2ccc(Cl)cc2c1-c1ccccc1
